The numbers were not newly measured in US20180055935A1, “METHOD FOR THE PRODUCTION OF A FORMULATION OF A HYPERICIN SALT” (Sanochemia Pharmazeutika AG, priority 2015, published 2018), which cites them from elsewhere.

This data set has as its system bladder carcinoma. The settings on record: hypericin 30 μM using polyethylene glycol, 595 nm, 25 up to 50 mW/cm^2.

`Cc1cc(O)c2c(=O)c3c(O)cc(O)c4c5c(O)cc(O)c6c(=O)c7c(O)cc(C)c8c1c2c(c34)c(c78)c65` [hypericin, 1,3,4,6,8,13-hexahydroxy-10, 11-dimethylphenanthro (1,10,9,8-opqra)perylene-7, 14-dione]: the tumor cells killed result is “up to 98%”.
